# Read-outs that look alike come from different tables or passages of the source.
# B1: SPAG9 (protein, UniProt O60271 1-1321, looked up)
# C-Jun-amino-terminal …: MELEDGVVYQEEPGGSGAVMSERVSGLAGSIYREFERLIGRYDEEVVKELMPLVVAVLENLDSVFAQDQEHQVELELLRDDNEQLITQYEREKALRKHAEEKFIEFEDSQEQEKKDLQTRVESLESQTRQLELKAKNYADQISRLEEREAELKKEYNALHQRHTEMIHNYMEHLERTKLHQLSGSDQLESTAHSRIRKERPISLGIFPLPAGDGLLTPDAQKGGETPGSEQWKFQELSQPRSHTSLKVSNSPEPQKAVEQEDELSDVSQGGSKATTPASTANSDVATIPTDTPLKEENEGFVKVTDAPNKSEISKHIEVQVAQETRNVSTGSAENEEKSEVQAIIESTPELDMDKDLSGYKGSSTPTKGIENKAFDRNTESLFEELSSAGSGLIGDVDEGADLLGMGREVENLILENTQLLETKNALNIVKNDLIAKVDELTCEKDVLQGELEAVKQAKLKLEEKNRELEEELRKARAEAEDARQKAKDDDDSDIPTAQRKRFTRVEMARVLMERNQYKERLMELQEAVRWTEMIRASRENPAMQEKKRSSIWQFFSRLFSSSSNTTKKPEPPVNLKYNAPTSHVTPSVKKRSSTLSQLPGDKSKAFDFLSEETEASLASRREQKREQYRQVKAHVQKEDGRVQAFGWSLPQKYKQVTNGQGENKMKNLPVPVYLRPLDEKDTSMKLWCAVGVNLSGGKTRDGGSVVGASVFYKDVAGLDTEGSKQRSASQSSLDKLDQELKEQQKELKNQEELSSLVWICTSTHSATKVLIIDAVQPGNILDSFTVCNSHVLCIASVPGARETDYPAGEDLSESGQVDKASLCGSMTSNSSAETDSLLGGITVVGCSAEGVTGAATSPSTNGASPVMDKPPEMEAENSEVDENVPTAEEATEATEGNAGSAEDTVDISQTGVYTEHVFTDPLGVQIPEDLSPVYQSSNDSDAYKDQISVLPNEQDLVREEAQKMSSLLPTMWLGAQNGCLYVHSSVAQWRKCLHSIKLKDSILSIVHVKGIVLVALADGTLAIFHRGVDGQWDLSNYHLLDLGRPHHSIRCMTVVHDKVWCGYRNKIYVVQPKAMKIEKSFDAHPRKESQVRQLAWVGDGVWVSIRLDSTLRLYHAHTYQHLQDVDIEPYVSKMLGTGKLGFSFVRITALMVSCNRLWVGTGNGVIISIPLTETNKTSGVPGNRPGSVIRVYGDENSDKVTPGTFIPYCSMAHAQLCFHGHRDAVKFFVAVPGQVISPQSSSSGTDLTGDKAGPSAQEPGSQTPLKSMLVISGGEGYIDFRMGDEGGESELLGEDLPLEPSVTKAERSHLIVWQVMYGNE
# Legend:
# [1] = test system: peripheral mononuclear cells; assay: ELISPOT of T-cell responses to vaccine peptides after 1st immunization of the breast cancer patient; assay type: in vivo, human; conditions: after the 1st immunization; for ELISpot: 5 days culture of PBMC from the patient
# Excerpt: In the prior art, HLA-binding based epitope selection methods have been used for vaccine development. The epitopes in the personal vaccines made for the breast cancer patient were selected to bind at least 3 HLAs of the subject as described in the published US patent application 2018/264094. […] The potency of T-cell responses against the tumor antigens were predicted by the system described above (using HLA class I EWS, HLA class II EWS and overall EWS). The potency of T-cell responses to the vaccine peptides after the 1st immunization were measured with ELISPOT assay after 5 days culture of the peripheral mononuclear cells isolated from a blood sample of the patient (Spots/10^6 PBMC).
# [2] = test system: antigen-specific T-cell clone; conditions: peptide pool, response attributed to the dominant epitope, cited from earlier work
# CD8^+ T-cells = conditions: log-fold change, cited from earlier work
# HeLa cells = assay: Cellular uptake of fluorescent-labeled peptide vaccines, flow cytometry; assay type: cell-based, human; conditions: for cells taking up the vaccine: 40 μM, within 30 minutes; for cellular uptake (intensity of fluorescence) compared to control: flow cytometry, control without R8
# Experimental: (§1) Methods: HeLa cells were seeded at a density of 200,000 cells per well in 6-well plates and allowed to grow for one day. On the second day, the cells were treated with the peptides at three different concentrations (2.5 μM, 10 μM, and 40 μM) for two different incubation times (15 minutes and 30 minutes). After the treatment, the cells were detached using trypsin, washed, and resuspended in PBS. The cells were then analyzed using a FACS Canto flow cytometer. A total of 30,000 events were acquired, and the percentage of fluorescent cells and fluorescent intensity (geometric mean and median) were determined through flow analysis.
# as §1, with “Methods” for “Methods:”
# [3] = test system: peritoneal tumour biopsies; assay: Transcriptome analysis of the Murcia patient's peritoneal tumour biopsies; conditions: target of 2nd generation personalized vaccines
# Excerpt: All the putative 8-20 amino acids long epitopes were created from these proteins and used for designing the 2nd generation of personalized vaccines according to the invention. […] These antigens have different length and amino acid sequences. All selected peptide antigen contains multiple highly ranked epitopes (13-66) presented on the cell surface by the patient's HLA class I and class II molecules. The range of the potency score is indicated for the selected epitopes. Epitopes presented by the patient's HLA class I and class II molecules are indicated to induce CD8 and CD4 responses, respectively. As described in the invention, the potency of each epitope in the vaccines was calculated and indicated to inform the physician about the predicted efficacy of the personalised vaccines in the recipient.
# [4] = Subject 1005699, cohort COVID-19-Acute
# [5] = ABF cohort individual BC10, Healthy
# [6] = ABF cohort individual AP0201, Hospitalized
# [7] = Subject 1327414, cohort Healthy
molecule,measurement,setting,value
FTSSRMSSFNRHMKTHTSEK [CTCFL long-peptide personal vaccine of the breast cancer patient],ELISpot,[1],48 Spots/10^6 PBMC
DLFMRIFTI,Hits,[2]; [4],1
AADLDDFSKQL [SARS-COV-2 peptide of the ABF cohort data],LFC,CD8^+ T-cells; [5],0
SVYADQVNIDYLMNRPQNLR [AKAP4 long-peptide personal vaccine of the breast cancer patient],ELISpot,[1],366 Spots/10^6 PBMC
same,T cell responses (ELISPOT),[1]; breast cancer patient,366 spots/million cells
RLDQLLRHVMNPLETLSITN [PRAME long-peptide personal vaccine of the breast cancer patient],ELISpot,[1],66 Spots/10^6 PBMC
APHGVVFLHV [SARS-COV-2 peptide of the ABF cohort data],LFC,CD8^+ T-cells; [6],0
ADLDDFSKQL [SARS-COV-2 peptide of the ABF cohort data],LFC,CD8^+ T-cells; [6],0
SDTKDYFMSKTLGIGRLKRP [FSIP1 long-peptide personal vaccine of the breast cancer patient],ELISpot,[1],257 Spots/10^6 PBMC
IELSLIDFYL,Hits,[2]; [4],4
AMDEFIERY [SARS-COV-2 peptide of the ABF cohort data],LFC,CD8^+ T-cells; [5],0
SGSSYFVLANGHILPNSENA [FMRINB long-peptide personal vaccine of the breast cancer patient],ELISpot,[1],130 Spots/10^6 PBMC
QEESFSPTAMDAIFGSLSDE [MAGEAA long-peptide personal vaccine of the breast cancer patient],ELISpot,[1],0 Spots/10^6 PBMC
TLPPAWQPFLKDHRISTFKN [BIRC5 long-peptide personal vaccine of the breast cancer patient],ELISpot,[1],71 Spots/10^6 PBMC
ALVYFLQSI [SARS-COV-2 peptide of the ABF cohort data],LFC,CD8^+ T-cells; [6],0
APHGVVFL [SARS-COV-2 peptide of the ABF cohort data],LFC,CD8^+ T-cells; [6],0
ALLAVFQSA [SARS-COV-2 peptide of the ABF cohort data],LFC,CD8^+ T-cells; [5],0
AYILFTRFFYV,Hits,[2]; [4],3
same,Hits,[2]; [7],1
ITLATCELY,Hits,[2]; [4],12
same,Hits,[2]; [7],1
AIMTRCLAV,Hits,[2]; [7],1
"Fluoresc-THVDIRTLEDLLMGTL-RRRRRRRR-RAHYNIVTF-NH2 (fluorescein-THVDIRTLEDLLMGTLRRRRRRRRRAHYNIVTF-NH2) [HPV-specific Personalized Vaccine, E7 (HPV16)-specific VERDI Vaccine]",more peptide accumulated in each cell compared to the control vaccines (median fluorescence intensity),HeLa cells; HeLa cells,approximately 30%
same,cells taking up the vaccine,HeLa cells; HeLa cells,more than 50%
same,cells taking up the vaccine,"HeLa cells; HeLa cells, listed as HPV-specific vaccine",53%
same,cellular uptake (intensity of fluorescence) compared to control,HeLa cells,significantly higher uptake
ALQDAYYRA [SARS-COV-2 peptide of the ABF cohort data],LFC,CD8^+ T-cells; [5],0
APFLYLYAL [SARS-COV-2 peptide of the ABF cohort data],LFC,CD8^+ T-cells; [6],0
FEYVSQPFL,Hits,[2]; [4],1
ANPKTPKYKF [SARS-COV-2 peptide of the ABF cohort data],LFC,CD8^+ T-cells; [6],0
"Fluoresc-EEKEIIVIKDTEKKDQS-RRRRRRRR-SQFNVPMLY-NH2 (fluorescein-EEKEIIVIKDTEKKDQSRRRRRRRRSQFNVPMLY-NH2) [AKAP-4-specific Personalized Vaccine, AKAP-4-specific VERDI Vaccine]",cells taking up the vaccine,HeLa cells; HeLa cells,45%
same,cellular uptake (intensity of fluorescence) compared to control,HeLa cells,significantly higher uptake
NEQDLVREEAQKMSSLLPTM [SPAG9 long-peptide personal vaccine of the breast cancer patient],ELISpot,[1],0 Spots/10^6 PBMC
ALNTLVKQL,Hits,[2]; [7],1
FAYANRNRF,Hits,[2]; [4],1
VVFLHVTYV,Hits,[2]; [4],1
same,Hits,[2]; [7],8
AFPFTIYSL [SARS-COV-2 peptide of the ABF cohort data],LFC,CD8^+ T-cells; [6],0
NVFAFPFTIY,Hits,[2]; [7],19
KEIIFLEGETL,Hits,[2]; [7],1
AHAEETRKL [SARS-COV-2 peptide of the ABF cohort data],LFC,CD8^+ T-cells; [6],0
FCNDPFLGVY,Hits,[2]; [4],1
ALLADKFPVL [SARS-COV-2 peptide of the ABF cohort data],LFC,CD8^+ T-cells; [6],0
same,LFC,CD8^+ T-cells; [5],0
ALTCFSTQF [SARS-COV-2 peptide of the ABF cohort data],LFC,CD8^+ T-cells; [5],0
ALRKVPTDNY [SARS-COV-2 peptide of the ABF cohort data],LFC,CD8^+ T-cells; [5],0
BLTP2,Relative expression,[3],95
WT1,Relative expression,[3],59
ELIRQGTDY,Hits,[2]; [4],2
APISAMVRM [SARS-COV-2 peptide of the ABF cohort data],LFC,CD8^+ T-cells; [5],0
APKEIIFL [SARS-COV-2 peptide of the ABF cohort data],LFC,CD8^+ T-cells; [5],0
SVLLFLAFV,Hits,[2]; [7],5
VASQSIIAY,Hits,[2]; [4],23
same,Hits,[2]; [7],4
B1,Relative expression,[3],70

# Source: patent publication US20260188423A1, “IDENTIFICATION OF CELL SURFACE ANTIGENS WHICH INDUCE T-CELL RESPONSES AND THEIR USES” (priority 2022, published 2026)
